According to PubChem BioAssay AID1745844 (Carcinogenic Potency Database (CPDB), 2022):
Activity calls are given as the source filed them. No rule for the calls is given here.

System: rodent lifetime carcinogenesis bioassay, tumor incidence TD50
Experiment: chronic cancer bioassays in animals – CPDB, compiled studies (AID 1745844)

In the case of `C[C@]12CCC(=O)C=C1CC[C@@H]1[C@@H]2[C@@H](O)C[C@@]2(C)[C@H]1CC[C@]2(O)C(=O)CO`, the carcinogen call (rat, strain Sprague-Dawley, females, by gavage, site: any site (literature study), lesion: malignant tumor, dosed 110 weeks, study length 110 weeks) is reported as “negative (inactive)” and the carcinogen call (rat, strain Sprague-Dawley, males, by gavage, site: any site (literature study), lesion: malignant tumor, dosed 104 weeks, study length 104 weeks) is reported as “negative (inactive)”.

In the case of `O=C(O)c1ccc(O)c(O)c1`, the carcinogen call (hamster, strain Syrian Golden, females, in feed, site: liver, lesion: one or several types, types not named, dosed 49 weeks, study length 52 weeks) is reported as “negative (inactive)” and the carcinogen call (hamster, strain Syrian Golden, females, in feed, site: lung, lesion: one or several types, types not named, dosed 49 weeks, study length 52 weeks) is reported as “negative (inactive)”.

With `CCc1cc(C(N)=S)ccn1` the TD50 (mouse, strain B6C3F1, females, in feed, site: any site (literature study), lesion: several types, types named in the paper, dosed 78 weeks, study length 104 weeks) was 450 mg/kg/day (inactive), the carcinogen call (mouse, strain B6C3F1, males, in feed, site: any site (literature study), lesion: several types, types named in the paper, dosed 78 weeks, study length 104 weeks) was “negative (inactive)” and the TD50 (mouse, strain BALB/c, females, by gavage, site: liver, lesion: papillary carcinoma, dosed 50 weeks, study length 69 weeks) was 240 mg/kg/day (inactive). For the same compound, the TD50 (mouse, strain BALB/c, females, by gavage, site: lung, lesion: adenoma, dosed 50 weeks, study length 69 weeks) was 124 mg/kg/day (inactive), the TD50 (mouse, strain BALB/c, females, by gavage, site: thyroid gland, lesion: carcinoma, dosed 50 weeks, study length 69 weeks) was 69.3 mg/kg/day and the carcinogen call (rat, strain Fischer 344, females, in feed, site: any site (literature study), lesion: several types, types named in the paper, dosed 78 weeks, study length 104 weeks) was “negative (inactive)”. The TD50 (rat, strain Fischer 344, females, in feed, site: liver, lesion: hepatocellular adenoma + hepatocellular carcinoma + neoplastic nodule, dosed 78 weeks, study length 104 weeks) was 508 mg/kg/day, the carcinogen call (rat, strain Fischer 344, males, in feed, site: any site (literature study), lesion: several types, types named in the paper, dosed 78 weeks, study length 103 weeks) was “negative (inactive)” and the TD50 (rat, strain Fischer 344, males, in feed, site: liver, lesion: hepatocellular adenoma + hepatocellular carcinoma + neoplastic nodule, dosed 78 weeks, study length 103 weeks) was 623 mg/kg/day.

With `NCCCC(N)(C(=O)O)C(F)F` (centres undefined) the carcinogen call (rat, strain Wistar, males, in feed, site: stomach, glandular, lesion: one or several types, types not named, dosed 70 weeks, study length 70 weeks) was “negative (inactive)”.

With `O=C(O)c1cc(=O)[nH]c(=O)[nH]1` the TD50 (rat, strain Fischer 344, males, in feed, site: Zymbal's gland, lesion: one or several types, types not named, dosed 104 weeks, study length 104 weeks) was 2600 mg/kg/day, the TD50 (rat, strain Fischer 344, males, in feed, site: all sites, lesion: leukemia, dosed 104 weeks, study length 104 weeks) was 1690 mg/kg/day and the TD50 (rat, strain Fischer 344, males, in feed, site: liver, lesion: hepatocellular adenoma, dosed 52 weeks, study length 52 weeks) was 925 mg/kg/day. It also gave a TD50 (rat, strain Fischer 344, males, in feed, site: liver, lesion: hepatocellular adenoma, dosed 104 weeks, study length 104 weeks) of 395 mg/kg/day.

In the case of `N[C@@H](CCC(=O)NNc1ccc(CO)cc1)C(=O)O`, the TD50 (mouse, strain Swiss albino, females, in drinking water, site: liver, lesion: angiosarcoma, dosed 121 weeks, study length 121 weeks) is reported as 2720 mg/kg/day, the TD50 (mouse, strain Swiss albino, females, in drinking water, site: lung, lesion: adenoma, dosed 121 weeks, study length 121 weeks) is reported as 3290 mg/kg/day and the carcinogen call (mouse, strain Swiss albino, females, in drinking water, site: lung, lesion: several types, types named in the paper, dosed 121 weeks, study length 121 weeks) is reported as “negative (inactive)”. For the same compound, the TD50 (mouse, strain Swiss albino, males, in drinking water, site: liver, lesion: angiosarcoma, dosed 120 weeks, study length 120 weeks) was 2040 mg/kg/day, the TD50 (mouse, strain Swiss albino, males, in drinking water, site: liver, lesion: hepatoma, dosed 120 weeks, study length 120 weeks) was 3310 mg/kg/day (inactive) and the carcinogen call (mouse, strain Swiss albino, males, in drinking water, site: lung, lesion: several types, types named in the paper, dosed 120 weeks, study length 120 weeks) was “negative (inactive)”.

`CC(Cl)CCl` (centres undefined) gave a TD50 (mouse, strain B6C3F1, females, by gavage, site: any site (literature study), lesion: several types, types named in the paper, dosed 103 weeks, study length 105 weeks) of 341 mg/kg/day, a TD50 (mouse, strain B6C3F1, females, by gavage, site: forestomach, lesion: squamous-cell carcinoma + squamous-cell papilloma, dosed 103 weeks, study length 105 weeks) of 1020 mg/kg/day and a TD50 (mouse, strain B6C3F1, females, by gavage, site: liver, lesion: hepatocellular adenoma + hepatocellular carcinoma + neoplastic nodule, dosed 103 weeks, study length 105 weeks) of 346 mg/kg/day. For the same compound, the TD50 (mouse, strain B6C3F1, females, by gavage, site: liver, lesion: hepatocellular adenoma + hepatocellular carcinoma, dosed 103 weeks, study length 105 weeks) was 346 mg/kg/day, the TD50 (mouse, strain B6C3F1, females, by gavage, site: liver, lesion: hepatocellular adenoma, dosed 103 weeks, study length 105 weeks) was 562 mg/kg/day and the TD50 (mouse, strain B6C3F1, males, by gavage, site: any site (literature study), lesion: several types, types named in the paper, dosed 103 weeks, study length 105 weeks) was 397 mg/kg/day. For the same compound, the TD50 (mouse, strain B6C3F1, males, by gavage, site: forestomach, lesion: squamous-cell papilloma, dosed 103 weeks, study length 105 weeks) was 1520 mg/kg/day, the TD50 (mouse, strain B6C3F1, males, by gavage, site: liver, lesion: hepatocellular adenoma + hepatocellular carcinoma + neoplastic nodule, dosed 103 weeks, study length 105 weeks) was 229 mg/kg/day and the TD50 (mouse, strain B6C3F1, males, by gavage, site: liver, lesion: hepatocellular adenoma + hepatocellular carcinoma, dosed 103 weeks, study length 105 weeks) was 229 mg/kg/day. It also gave a TD50 (mouse, strain B6C3F1, males, by gavage, site: liver, lesion: hepatocellular adenoma, dosed 103 weeks, study length 105 weeks) of 384 mg/kg/day, a TD50 (mouse, strain B6C3F1, males, by gavage, site: lung, lesion: alveolar/bronchiolar adenoma + alveolar/bronchiolar carcinoma, dosed 103 weeks, study length 105 weeks) of 5070 mg/kg/day and a TD50 (rat, strain Fischer 344, females, by gavage, site: any site (literature study), lesion: several types, types named in the paper, dosed 103 weeks, study length 105 weeks) of 240 mg/kg/day. The TD50 (rat, strain Fischer 344, females, by gavage, site: mammary gland, lesion: adenocarcinoma, NOS, dosed 103 weeks, study length 105 weeks) was 767 mg/kg/day, the TD50 (rat, strain Fischer 344, males, by gavage, site: any site (literature study), lesion: several types, types named in the paper, dosed 103 weeks, study length 106 weeks) was 69.7 mg/kg/day (inactive) and the TD50 (rat, strain Fischer 344, males, by gavage, site: liver, lesion: hepatocellular adenoma + hepatocellular carcinoma + neoplastic nodule, dosed 103 weeks, study length 106 weeks) was 2570 mg/kg/day.

In the case of `c1ccc2[nH]ccc2c1`, the carcinogen call (mouse, strain Swiss albino, females, in feed, site: urinary bladder, lesion: carcinoma, dosed 70 weeks, study length 70 weeks) is reported as “negative (inactive)”.

`O=C(O)c1ccc(N=Nc2ccc(O)c(C(=O)O)c2)cc1` was tested, and the TD50 (mouse, strain NMRI, females, in feed, site: all sites, lesion: lymphoma, dosed 107 weeks, study length 107 weeks) was 1200 mg/kg/day (inactive), the carcinogen call (mouse, strain NMRI, females, in feed, site: liver, lesion: hepatocellular adenoma, dosed 107 weeks, study length 107 weeks) was “negative (inactive)” and the carcinogen call (mouse, strain NMRI, females, in feed, site: lung, lesion: alveolar/bronchiolar adenocarcinoma, dosed 107 weeks, study length 107 weeks) was “negative (inactive)”. The TD50 (mouse, strain NMRI, females, in feed, site: lung, lesion: alveolar/bronchiolar adenoma, dosed 107 weeks, study length 107 weeks) was 2650 mg/kg/day (inactive), the TD50 (mouse, strain NMRI, males, in feed, site: liver, lesion: hepatocellular adenoma, dosed 120 weeks, study length 120 weeks) was 35200 mg/kg/day (inactive) and the TD50 (mouse, strain NMRI, males, in feed, site: liver, lesion: hepatocellular carcinoma, dosed 120 weeks, study length 120 weeks) was 19500 mg/kg/day (inactive). For the same compound, the TD50 (mouse, strain NMRI, males, in feed, site: lung, lesion: alveolar/bronchiolar adenocarcinoma, dosed 120 weeks, study length 120 weeks) was 14300 mg/kg/day (inactive), the TD50 (mouse, strain NMRI, males, in feed, site: lung, lesion: alveolar/bronchiolar adenoma, dosed 120 weeks, study length 120 weeks) was 13000 mg/kg/day (inactive) and the carcinogen call (rat, strain Sprague-Dawley, females, in feed, site: liver, lesion: hepatocellular tumor, dosed 119 weeks, study length 119 weeks) was “negative (inactive)”. For the same compound, the carcinogen call (rat, strain Sprague-Dawley, males, in feed, site: liver, lesion: hepatocellular adenoma, dosed 118 weeks, study length 118 weeks) was “negative (inactive)”, the carcinogen call (rat, strain Sprague-Dawley, males, in feed, site: liver, lesion: hepatocellular carcinoma, dosed 118 weeks, study length 118 weeks) was “negative (inactive)” and the TD50 (rat, strain Sprague-Dawley, males, in feed, site: thyroid gland, lesion: follicular-cell adenoma, dosed 118 weeks, study length 118 weeks) was 15300 mg/kg/day.

With `Nc1nc(/C=C/c2ccc([N+](=O)[O-])o2)no1` the TD50 (mouse, strain Charles River CD1, females, in feed, site: forestomach, lesion: squamous-cell carcinoma, dosed 31 weeks, study length 75 weeks) was 105 mg/kg/day, the TD50 (mouse, strain Charles River CD1, females, in feed, site: forestomach, lesion: squamous-cell papilloma, dosed 31 weeks, study length 75 weeks) was 1150 mg/kg/day and the TD50 (mouse, strain Charles River CD1, females, in feed, site: lung, lesion: adenoma, dosed 31 weeks, study length 75 weeks) was 1010 mg/kg/day. The carcinogen call (mouse, strain Charles River CD1, females, in feed, site: reticuloendothelium, lesion: several types, types named in the paper, dosed 31 weeks, study length 75 weeks) was “positive”, the TD50 (mouse, strain Charles River CD1, females, in feed, site: thymus gland, lesion: lymphoma, dosed 31 weeks, study length 75 weeks) was 262 mg/kg/day and the TD50 (mouse, strain Charles River CD1, males, in feed, site: any site (literature study), lesion: several types, types named in the paper, dosed 38 weeks, study length 75 weeks) was 29.2 mg/kg/day. It also gave a TD50 (mouse, strain Charles River CD1, males, in feed, site: forestomach, lesion: squamous-cell carcinoma, dosed 38 weeks, study length 75 weeks) of 130 mg/kg/day, a TD50 (mouse, strain Charles River CD1, males, in feed, site: forestomach, lesion: squamous-cell papilloma, dosed 38 weeks, study length 75 weeks) of 514 mg/kg/day and a TD50 (mouse, strain Charles River CD1, males, in feed, site: reticuloendothelium, lesion: several types, types named in the paper, dosed 38 weeks, study length 75 weeks) of 492 mg/kg/day. It also gave a TD50 (mouse, strain Charles River CD1, males, in feed, site: thymus gland, lesion: lymphoma, dosed 38 weeks, study length 75 weeks) of 121 mg/kg/day.

`[S-]c1nc2ccccc2s1.[S-]c1nc2ccccc2s1.[Zn+2]` was tested, and the carcinogen call (mouse, strain B6AKF1, females, oral dosing, site: any site (literature study), lesion: several types, types named in the paper, dosed 76 weeks, study length 76 weeks) was “negative (inactive)”, the carcinogen call (mouse, strain B6AKF1, females, oral dosing, site: liver, lesion: hepatoma, dosed 76 weeks, study length 76 weeks) was “negative (inactive)” and the carcinogen call (mouse, strain B6AKF1, females, oral dosing, site: lung, lesion: adenoma, dosed 76 weeks, study length 76 weeks) was “negative (inactive)”. The carcinogen call (mouse, strain B6AKF1, males, oral dosing, site: any site (literature study), lesion: several types, types named in the paper, dosed 76 weeks, study length 76 weeks) was “negative (inactive)”, the carcinogen call (mouse, strain B6AKF1, males, oral dosing, site: liver, lesion: hepatoma, dosed 76 weeks, study length 76 weeks) was “negative (inactive)” and the carcinogen call (mouse, strain B6AKF1, males, oral dosing, site: lung, lesion: adenoma, dosed 76 weeks, study length 76 weeks) was “negative (inactive)”. For the same compound, the TD50 (mouse, strain B6C3F1, females, oral dosing, site: any site (literature study), lesion: several types, types named in the paper, dosed 76 weeks, study length 76 weeks) was 2790 mg/kg/day (inactive), the carcinogen call (mouse, strain B6C3F1, females, oral dosing, site: liver, lesion: hepatoma, dosed 76 weeks, study length 76 weeks) was “negative (inactive)” and the carcinogen call (mouse, strain B6C3F1, females, oral dosing, site: lung, lesion: several types, types named in the paper, dosed 76 weeks, study length 76 weeks) was “negative (inactive)”. The TD50 (mouse, strain B6C3F1, males, oral dosing, site: any site (literature study), lesion: several types, types named in the paper, dosed 76 weeks, study length 76 weeks) was 319 mg/kg/day (inactive), the TD50 (mouse, strain B6C3F1, males, oral dosing, site: liver, lesion: hepatoma, dosed 76 weeks, study length 76 weeks) was 388 mg/kg/day (inactive) and the TD50 (mouse, strain B6C3F1, males, oral dosing, site: lung, lesion: adenoma, dosed 76 weeks, study length 76 weeks) was 2750 mg/kg/day (inactive).
